The record followed here is patent US6562817B1, “Tricyclic compound” (Shionogi & Co., Ltd., priority 1998, dated 2003).

The subject of series [1] is anti-OVA IgE production in BALB/c mice. As to the kind of experiment: Suppressive effect on the IgE production against ovalbumin (OVA): anti-OVA IgE antibody titer (PCA titer). The format is in vivo, mouse. Particulars: BALB/c mice immunized with OVA, 40 mg/kg orally for 10 days; titer = highest 2^n serum dilution positive in rat PCA. Here is the method:
Suppressive effect on the IgE Production Against ovalbumin (OVA)
BALB/c mice (female, 8-10 weeks old) and Wistar rats (female, 8-10 weeks old) which were bought from Japan SLC, Inc. (Shizuoka) were used.
BALB/c mice were immunized by an intraperitoneal administration of 0.2 ml suspension of 2 μg of ovalbumin (OVA) and 2 mg of aluminium hydroxide gel in physiological saline. After 10 days, blood was collected from hearts, then sera were separated and stocked at −40° C. till the measurement of IgE antibody titer.
After the compound of the present invention was dissolved or suspended in N,N-dimethylacetoamide, the mixture was diluted 20 times with miglyol 812 neutral oil. The obtained solution was orally administered to mice at 0.1 ml per mouse (dose 40 mg/kg). The administration was continued for 10 days from the immunizing day to the day before the blood collection.
The obtained mouse serum was 2-fold diluted with physiological saline, then each 50 μl of the solution was intradermally injected at dorsal skin of Wistar rats which previously hair cut. After 24 hours, a passive cutaneous anaphylaxis reaction (PCA) was induced by an intravenous injection of 0.5 ml of physiological saline containing 1 mg of OVA and 5 mg of Evans' blue dye. The rats were sacrified 30 minutes later and the highest dilution giving bluing with a diameter of 5 mm or more was recorded as the PCA titer. […]

As usually defined, the melting point is the temperature of the solid-liquid transition. `CC(C)=CCNc1ccc(-c2cc(C)c(-c3ccc(OCC=C(C)C)nc3)cc2C)c(F)c1` [Ib-250] came in with a melting point of 87 to 88 °C. Further, the “PCA Titer” value in series [1] worked out at 0.
